Laboratory results as given in PMC11882969 (Nature Communications, 2025).
“And” between values parts separate entries of the source, which are not always exact repeats. Equal entries are not always repeated.

Key:
Assay type in all cases: cell-based
[1] = molecular target: panel of 320 non-olfactory GPCRs (Homo sapiens, UniProt Q9H244)
[2] = molecular target: panel of 320 non-olfactory GPCRs (Homo sapiens, UniProt P51681)
[3] = molecular target: panel of 320 non-olfactory GPCRs (Homo sapiens, UniProt Q99705)
Sequence of panel of 320 non-olfactory GPCRs (Homo sapiens, UniProt Q99705) (Q99705 whole entry): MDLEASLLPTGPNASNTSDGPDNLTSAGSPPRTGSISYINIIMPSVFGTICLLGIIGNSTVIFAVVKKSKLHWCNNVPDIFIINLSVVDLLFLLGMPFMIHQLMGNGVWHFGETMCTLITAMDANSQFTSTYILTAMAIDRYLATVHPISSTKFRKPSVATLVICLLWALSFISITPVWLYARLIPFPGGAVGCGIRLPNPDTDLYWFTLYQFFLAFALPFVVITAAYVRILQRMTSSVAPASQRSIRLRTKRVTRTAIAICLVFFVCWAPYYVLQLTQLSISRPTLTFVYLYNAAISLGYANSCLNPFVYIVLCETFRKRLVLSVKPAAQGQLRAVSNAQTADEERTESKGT

[4] = molecular target: panel of 320 non-olfactory GPCRs (Homo sapiens, UniProt O00421)
[5] = molecular target: panel of 320 non-olfactory GPCRs (Homo sapiens, UniProt P08913)
Sequence of panel of 320 non-olfactory GPCRs (Homo sapiens, UniProt P08913) (P08913 whole entry): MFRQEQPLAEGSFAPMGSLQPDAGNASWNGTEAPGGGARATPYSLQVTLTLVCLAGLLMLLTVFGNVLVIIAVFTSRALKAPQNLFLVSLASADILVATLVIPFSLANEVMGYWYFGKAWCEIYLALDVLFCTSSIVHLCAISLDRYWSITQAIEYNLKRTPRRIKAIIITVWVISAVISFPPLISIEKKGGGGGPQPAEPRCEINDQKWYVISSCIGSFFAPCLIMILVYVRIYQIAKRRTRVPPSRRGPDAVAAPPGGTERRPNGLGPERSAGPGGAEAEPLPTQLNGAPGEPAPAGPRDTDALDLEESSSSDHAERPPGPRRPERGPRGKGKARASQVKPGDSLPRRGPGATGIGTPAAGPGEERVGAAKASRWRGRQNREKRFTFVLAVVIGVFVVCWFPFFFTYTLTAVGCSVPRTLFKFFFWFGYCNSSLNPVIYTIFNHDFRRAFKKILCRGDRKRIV

[6] = molecular target: panel of 320 non-olfactory GPCRs (Homo sapiens, UniProt Q96LB2)
Sequence of panel of 320 non-olfactory GPCRs (Homo sapiens, UniProt Q96LB2) (Q96LB2 whole entry): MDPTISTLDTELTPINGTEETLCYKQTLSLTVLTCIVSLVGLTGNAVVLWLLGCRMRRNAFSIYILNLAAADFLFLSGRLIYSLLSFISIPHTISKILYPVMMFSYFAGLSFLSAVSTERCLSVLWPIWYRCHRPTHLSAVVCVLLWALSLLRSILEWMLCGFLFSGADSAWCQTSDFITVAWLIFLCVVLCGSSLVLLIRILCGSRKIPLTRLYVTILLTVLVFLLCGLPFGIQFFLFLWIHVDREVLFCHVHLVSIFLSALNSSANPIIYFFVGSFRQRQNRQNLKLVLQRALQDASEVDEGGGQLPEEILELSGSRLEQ

[7] = molecular target: panel of 320 non-olfactory GPCRs (Homo sapiens, UniProt P32247)
[8] = molecular target: panel of 320 non-olfactory GPCRs (Homo sapiens, UniProt P49682)
Sequence of panel of 320 non-olfactory GPCRs (Homo sapiens, UniProt P49682) (P49682 whole entry): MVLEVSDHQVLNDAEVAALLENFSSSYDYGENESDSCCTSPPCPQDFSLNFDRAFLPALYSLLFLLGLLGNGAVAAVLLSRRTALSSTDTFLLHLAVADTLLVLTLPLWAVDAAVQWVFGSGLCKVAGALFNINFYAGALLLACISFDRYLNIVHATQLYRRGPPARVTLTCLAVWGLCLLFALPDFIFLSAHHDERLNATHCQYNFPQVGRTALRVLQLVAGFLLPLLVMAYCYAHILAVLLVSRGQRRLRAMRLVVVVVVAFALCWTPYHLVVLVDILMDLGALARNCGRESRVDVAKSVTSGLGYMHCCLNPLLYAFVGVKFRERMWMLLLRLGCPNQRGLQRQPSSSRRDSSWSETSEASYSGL

[9] = molecular target: panel of 320 non-olfactory GPCRs (Homo sapiens, UniProt Q8TDV0)
Sequence of panel of 320 non-olfactory GPCRs (Homo sapiens, UniProt Q8TDV0) (Q8TDV0 whole entry): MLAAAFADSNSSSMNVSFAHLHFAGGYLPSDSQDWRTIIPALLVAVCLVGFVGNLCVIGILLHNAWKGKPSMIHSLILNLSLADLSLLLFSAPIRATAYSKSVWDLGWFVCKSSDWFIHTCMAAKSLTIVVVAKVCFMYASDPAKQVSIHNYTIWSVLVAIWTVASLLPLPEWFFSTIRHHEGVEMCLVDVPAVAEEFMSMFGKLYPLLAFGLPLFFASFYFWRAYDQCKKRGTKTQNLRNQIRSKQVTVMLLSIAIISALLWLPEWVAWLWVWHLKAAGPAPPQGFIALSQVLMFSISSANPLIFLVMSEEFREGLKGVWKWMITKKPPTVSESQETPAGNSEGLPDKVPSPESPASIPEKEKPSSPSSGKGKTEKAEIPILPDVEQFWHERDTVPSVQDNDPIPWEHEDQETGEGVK

[10] = molecular target: panel of 320 non-olfactory GPCRs (Homo sapiens, UniProt O14843)
Sequence of panel of 320 non-olfactory GPCRs (Homo sapiens, UniProt O14843) (O14843 whole entry): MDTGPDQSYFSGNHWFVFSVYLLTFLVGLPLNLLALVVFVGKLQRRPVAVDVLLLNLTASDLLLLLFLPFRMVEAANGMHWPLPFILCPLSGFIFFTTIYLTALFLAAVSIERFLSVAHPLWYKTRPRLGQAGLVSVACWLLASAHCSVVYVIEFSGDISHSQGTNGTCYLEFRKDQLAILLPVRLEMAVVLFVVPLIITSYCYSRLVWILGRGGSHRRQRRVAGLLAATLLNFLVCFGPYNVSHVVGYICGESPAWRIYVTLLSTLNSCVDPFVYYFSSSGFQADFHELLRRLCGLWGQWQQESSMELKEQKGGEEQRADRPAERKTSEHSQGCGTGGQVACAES

[11] = molecular target: panel of 320 non-olfactory GPCRs (Homo sapiens, UniProt Q5NUL3)
[12] = molecular target: panel of 320 non-olfactory GPCRs (Homo sapiens, UniProt Q86SM8)
Sequence of panel of 320 non-olfactory GPCRs (Homo sapiens, UniProt Q86SM8) (Q86SM8 whole entry): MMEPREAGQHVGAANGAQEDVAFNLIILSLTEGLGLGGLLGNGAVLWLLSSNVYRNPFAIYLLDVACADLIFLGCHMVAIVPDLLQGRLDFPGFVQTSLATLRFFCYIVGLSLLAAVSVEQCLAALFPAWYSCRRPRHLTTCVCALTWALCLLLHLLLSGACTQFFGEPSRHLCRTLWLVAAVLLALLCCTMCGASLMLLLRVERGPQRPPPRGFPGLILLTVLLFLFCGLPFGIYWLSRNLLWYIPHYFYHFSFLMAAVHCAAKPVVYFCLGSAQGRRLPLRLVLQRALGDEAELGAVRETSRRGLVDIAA

[13] = molecular target: panel of 320 non-olfactory GPCRs (Homo sapiens, UniProt Q02643)
[14] = molecular target: panel of 320 non-olfactory GPCRs (Homo sapiens, UniProt O60883)
[15] = molecular target: panel of 320 non-olfactory GPCRs (Homo sapiens, UniProt P47872)
[16] = molecular target: panel of 320 non-olfactory GPCRs (Homo sapiens, UniProt Q9Y5N1)
[17] = molecular target: panel of 320 non-olfactory GPCRs (Homo sapiens, UniProt Q9HBX9)
Sequence of panel of 320 non-olfactory GPCRs (Homo sapiens, UniProt Q9HBX9) (Q9HBX9 whole entry): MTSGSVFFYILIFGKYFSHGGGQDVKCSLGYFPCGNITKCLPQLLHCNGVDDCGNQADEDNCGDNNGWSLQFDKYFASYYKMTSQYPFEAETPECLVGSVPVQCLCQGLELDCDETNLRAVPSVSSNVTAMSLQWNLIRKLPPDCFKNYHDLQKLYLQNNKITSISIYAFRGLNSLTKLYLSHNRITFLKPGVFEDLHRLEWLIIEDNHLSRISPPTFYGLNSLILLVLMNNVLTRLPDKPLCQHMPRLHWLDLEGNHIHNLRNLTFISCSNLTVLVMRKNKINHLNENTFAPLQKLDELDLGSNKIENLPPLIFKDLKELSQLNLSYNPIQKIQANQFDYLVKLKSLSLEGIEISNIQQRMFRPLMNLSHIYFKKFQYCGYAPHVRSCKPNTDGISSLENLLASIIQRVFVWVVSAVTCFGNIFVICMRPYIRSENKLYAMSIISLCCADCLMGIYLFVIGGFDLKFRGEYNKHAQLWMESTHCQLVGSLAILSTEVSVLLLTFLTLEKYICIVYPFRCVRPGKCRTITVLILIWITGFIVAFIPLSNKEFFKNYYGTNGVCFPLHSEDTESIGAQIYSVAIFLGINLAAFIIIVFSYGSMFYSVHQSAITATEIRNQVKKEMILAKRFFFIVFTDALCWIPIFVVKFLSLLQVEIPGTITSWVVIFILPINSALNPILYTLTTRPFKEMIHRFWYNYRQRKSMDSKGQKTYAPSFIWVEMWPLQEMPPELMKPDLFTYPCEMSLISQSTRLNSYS

[18] = molecular target: panel of 320 non-olfactory GPCRs (Homo sapiens, UniProt Q8TDU6)
Sequence of panel of 320 non-olfactory GPCRs (Homo sapiens, UniProt Q8TDU6) (Q8TDU6 whole entry): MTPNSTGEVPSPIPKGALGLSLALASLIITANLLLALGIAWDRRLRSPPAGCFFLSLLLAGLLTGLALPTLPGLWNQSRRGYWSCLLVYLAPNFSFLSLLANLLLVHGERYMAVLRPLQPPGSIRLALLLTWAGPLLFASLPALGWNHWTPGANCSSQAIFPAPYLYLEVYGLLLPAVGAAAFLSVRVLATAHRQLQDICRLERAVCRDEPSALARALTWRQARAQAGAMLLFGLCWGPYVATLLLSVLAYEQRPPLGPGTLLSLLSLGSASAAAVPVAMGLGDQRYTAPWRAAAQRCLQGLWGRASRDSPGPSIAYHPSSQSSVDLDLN

[19] = molecular target: panel of 320 non-olfactory GPCRs (Homo sapiens, UniProt Q9BXC0)
[20] = molecular target: panel of 320 non-olfactory GPCRs (Homo sapiens, UniProt Q8NFN8)
[21] = molecular target: panel of 320 non-olfactory GPCRs (Homo sapiens, UniProt P30559)
[22] = molecular target: panel of 320 non-olfactory GPCRs (Homo sapiens, UniProt Q9HB89)
[23] = molecular target: panel of 320 non-olfactory GPCRs (Homo sapiens, UniProt P24530)
Sequence of panel of 320 non-olfactory GPCRs (Homo sapiens, UniProt P24530) (P24530 27-442): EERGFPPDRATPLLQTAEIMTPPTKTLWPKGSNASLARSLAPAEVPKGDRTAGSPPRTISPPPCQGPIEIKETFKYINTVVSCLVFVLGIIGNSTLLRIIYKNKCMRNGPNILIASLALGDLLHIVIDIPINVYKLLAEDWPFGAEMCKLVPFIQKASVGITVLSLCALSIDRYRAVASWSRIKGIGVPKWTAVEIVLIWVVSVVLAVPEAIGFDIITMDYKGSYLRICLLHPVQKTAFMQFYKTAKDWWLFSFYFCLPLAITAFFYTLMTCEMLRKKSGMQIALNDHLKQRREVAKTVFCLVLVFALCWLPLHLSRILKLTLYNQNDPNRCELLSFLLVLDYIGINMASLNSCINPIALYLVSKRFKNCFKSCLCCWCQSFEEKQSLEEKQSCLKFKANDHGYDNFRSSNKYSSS

[24] = molecular target: panel of 320 non-olfactory GPCRs (Homo sapiens, UniProt P47900)
[25] = molecular target: panel of 320 non-olfactory GPCRs (Homo sapiens, UniProt P18089)
[26] = molecular target: panel of 320 non-olfactory GPCRs (Homo sapiens, UniProt P49146)
[27] = molecular target: panel of 320 non-olfactory GPCRs (Homo sapiens, UniProt Q15722)
[28] = molecular target: panel of 320 non-olfactory GPCRs (Homo sapiens, UniProt P41145)
[29] = molecular target: panel of 320 non-olfactory GPCRs (Homo sapiens, UniProt P30939)
[30] = molecular target: panel of 320 non-olfactory GPCRs (Homo sapiens, UniProt P25021)
[31] = molecular target: panel of 320 non-olfactory GPCRs (Homo sapiens, UniProt P49286)
[32] = molecular target: panel of 320 non-olfactory GPCRs (Homo sapiens, UniProt P21731)
[33] = molecular target: panel of 320 non-olfactory GPCRs (Homo sapiens, UniProt Q9NS67)
Sequence of panel of 320 non-olfactory GPCRs (Homo sapiens, UniProt Q9NS67) (Q9NS67 whole entry): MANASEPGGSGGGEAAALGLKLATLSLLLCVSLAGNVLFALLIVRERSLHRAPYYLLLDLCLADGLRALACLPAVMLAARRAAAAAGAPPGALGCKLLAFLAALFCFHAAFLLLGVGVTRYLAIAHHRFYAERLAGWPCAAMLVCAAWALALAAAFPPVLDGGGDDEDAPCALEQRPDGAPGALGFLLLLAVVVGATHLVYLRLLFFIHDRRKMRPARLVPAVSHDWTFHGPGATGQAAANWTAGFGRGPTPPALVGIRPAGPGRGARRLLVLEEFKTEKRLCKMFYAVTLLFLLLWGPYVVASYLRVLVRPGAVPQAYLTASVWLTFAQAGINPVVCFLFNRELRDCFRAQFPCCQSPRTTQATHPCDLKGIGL

[34] = molecular target: panel of 320 non-olfactory GPCRs (Homo sapiens, UniProt Q96LA9)
[35] = molecular target: panel of 320 non-olfactory GPCRs (Homo sapiens, UniProt Q8IZF4)
[36] = molecular target: panel of 320 non-olfactory GPCRs (Homo sapiens, UniProt Q9H1Y3)
[37] = molecular target: panel of 320 non-olfactory GPCRs (Homo sapiens, UniProt P51582)
Sequence of panel of 320 non-olfactory GPCRs (Homo sapiens, UniProt P51582) (P51582 whole entry): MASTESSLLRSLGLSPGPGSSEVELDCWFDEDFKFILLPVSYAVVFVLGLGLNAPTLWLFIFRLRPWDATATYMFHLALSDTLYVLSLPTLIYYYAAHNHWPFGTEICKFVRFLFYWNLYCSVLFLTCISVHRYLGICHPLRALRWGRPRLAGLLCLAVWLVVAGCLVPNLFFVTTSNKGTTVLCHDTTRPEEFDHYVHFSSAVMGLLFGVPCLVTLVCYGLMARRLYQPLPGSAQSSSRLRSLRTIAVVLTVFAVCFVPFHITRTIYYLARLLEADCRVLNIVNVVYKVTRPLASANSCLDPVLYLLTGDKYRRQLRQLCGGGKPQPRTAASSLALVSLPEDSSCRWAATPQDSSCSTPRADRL
Further: test concentration or dose not given here.

**Q.** For `COC(=O)[C@@](C)(NC(=O)c1cc(C)n(-c2cccc(C(F)(F)F)c2)n1)c1cccs1` [‘1350], which “Fold of Basal RLU” value [1] is on record?
**A.** 0.7 and 0.6

**Q.** What about the “Fold of Basal RLU” value [2] of the same compound?
**A.** 0.9 and 0.6 and 1.1 and 0.7

**Q.** And the “Fold of Basal RLU” value [3]?
**A.** 1.3 and 1.1 and 0.7

**Q.** What about the “Fold of Basal RLU” value [4] of the same compound?
**A.** 1.8 and 1.2 and 1 and 0.9

**Q.** What about the “Fold of Basal RLU” value [5] of the same compound?
**A.** 1.8 fold and 1.4 fold and 1.6 fold and 1.2 fold

**Q.** And the “Fold of Basal RLU” value [6]?
**A.** 0.9 and 0.7 and 0.8 and 1.1

**Q.** What about the “Fold of Basal RLU” value [7] of the same compound?
**A.** 1.8 fold and 1.6 fold and 2.9 fold

**Q.** And the “Fold of Basal RLU” value [8]?
**A.** 0.5 and 0.4 and 0.6

**Q.** And the “Fold of Basal RLU” value [9]?
**A.** 0.6 and 0.8 and 1.1

**Q.** What about the “Fold of Basal RLU” value [10] of the same compound?
**A.** 0.6 and 0.8 and 1.1

**Q.** Which “Fold of Basal RLU” value [11] does the source give for `Cc1cc(C(=O)NC(C)(c2ccco2)c2ccco2)nn1-c1cccc(C(F)(F)F)c1` [‘4936] here?
**A.** 0.3 and 0.2

**Q.** What about the “Fold of Basal RLU” value [12] of the same compound?
**A.** 0.9 fold and 1.5 fold and 1.3 fold

**Q.** And the “Fold of Basal RLU” value [13]?
**A.** 0.7 and 0.6 and 1

**Q.** What about the “Fold of Basal RLU” value [14] of the same compound?
**A.** 0.5 fold and 0.9 fold and 0.6 fold

**Q.** And the “Fold of Basal RLU” value [15]?
**A.** 1.6 and 1.3

**Q.** And the “Fold of Basal RLU” value [16]?
**A.** 1 and 0.5 and 0.6

**Q.** What about the “Fold of Basal RLU” value [17] of the same compound?
**A.** 0.9 and 1.1 and 1.7 and 1.3

**Q.** And the “Fold of Basal RLU” value [18]?
**A.** 1.4 fold and 1.5 fold and 1.7 fold

**Q.** What about the “Fold of Basal RLU” value [19] of the same compound?
**A.** 0.4 and 0.7 and 0.6

**Q.** And the “Fold of Basal RLU” value [20]?
**A.** 0.8 and 1.2 and 0.6

**Q.** And the “Fold of Basal RLU” value [21]?
**A.** 0.9 and 0.8 and 1

**Q.** And the “Fold of Basal RLU” value [22]?
**A.** 0.9 and 1.5

**Q.** And the “Fold of Basal RLU” value [23]?
**A.** 0.9 and 0.7 and 0.5

**Q.** And the “Fold of Basal RLU” value [24]?
**A.** 1.1 fold and 0.9 fold and 0.7 fold and 1 fold

**Q.** What about the “Fold of Basal RLU” value [25] of the same compound?
**A.** 0.9 and 1.2 and 1.6 and 1

**Q.** What about the “Fold of Basal RLU” value [26] of the same compound?
**A.** 1.1 fold and 0.9 fold and 0.7 fold

**Q.** What about the “Fold of Basal RLU” value [27] of the same compound?
**A.** 0.6 and 1 and 0.9 and 0.8

**Q.** What about the “Fold of Basal RLU” value [28] of the same compound?
**A.** 1.5 fold and 0.8 fold and 1 fold

**Q.** What about the “Fold of Basal RLU” value [29] of the same compound?
**A.** 0.8 fold and 1.5 fold and 0.9 fold

**Q.** And the “Fold of Basal RLU” value [30]?
**A.** 1 and 1.2 and 1.1 and 0.6

**Q.** And the “Fold of Basal RLU” value [31]?
**A.** 1.4 fold and 2 fold and 2.5 fold and 2.8 fold

**Q.** And the “Fold of Basal RLU” value [32]?
**A.** 0.7 and 1.2 and 0.8

**Q.** And the “Fold of Basal RLU” value [33]?
**A.** 0.5 and 0.7 and 0.6

**Q.** What about the “Fold of Basal RLU” value [34] of the same compound?
**A.** 0.6 and 0.8 and 1.1

**Q.** And the “Fold of Basal RLU” value [35]?
**A.** 0.9 and 1 and 0.8 and 0.6

**Q.** What about the “Fold of Basal RLU” value [36] of the same compound?
**A.** 0.4 and 0.5

**Q.** What about the “Fold of Basal RLU” value [37] of the same compound?
**A.** 1.4 fold and 1.8 fold and 1.7 fold
